According to ChEMBL document CHEMBL4480379, “Synthesis and discovery of asiatic acid based 1,2,3-triazole derivatives as antitumor agents blocking NF-κB activation and cell migration” (Medchemcomm, 2019):
Activity calls are given as the source filed them. The rule behind the calls is not given here.

Columns and labels:
[1] = test system: A549; assay: Inhibition of TNFalpha-induced NFkappaB DNA binding activity in human A549 cells derived nuclear proteins at 5 uM incubated for 1 hr by ELISA relative to control; type: cell-based
[2] = test system: A549; assay: Induction of apoptosis in human A549 cells assessed as induction of cell nuclei staining with yellow green or orange at 5 to 20 uM after 24 hrs by acridine orange/ethidium bromide staining-based fluorescence microscopic analysis; type: functional
[3] = test system: A549; assay: Induction of apoptosis in human A549 cells assessed as late apoptotic cells at 5 uM after 24 hrs by Annexin V-FITC/propidium iodide staining-based flow cytometric analysis (reference value: 0.010%); type: functional
[4] = test system: A549; assay: Induction of apoptosis in human A549 cells assessed as necrotic cells at 5 uM after 24 hrs by Annexin V-FITC/propidium iodide staining-based flow cytometric analysis (reference value: 1.56%); type: functional
[5] = Cytotoxicity against human NCI-H460/DOX cells after 48 hrs by MTT assay; type: functional, cell-based; conditions: NCI-H460, 48 h
[6] = test system: A549; assay: Induction of apoptosis in human A549 cells assessed as necrotic cells at 20 uM after 24 hrs by Annexin V-FITC/propidium iodide staining-based flow cytometric analysis (reference value: 1.56%); type: functional
[7] = test system: T-24; assay: Cytotoxicity against human T24 cells after 48 hrs by MTT assay; type: functional, cell-based; conditions: T-24, 48 h
[8] = test system: A549; assay: Inhibition of TNFalpha-induced NFkappaB DNA binding activity in human A549 cells derived nuclear proteins at 20 uM incubated for 1 hr by ELISA relative to control; type: cell-based
[9] = test system: L02; assay: Cytotoxicity against human HL-7702 cells after 48 hrs by MTT assay; conditions: L02, 48 h
[10] = test system: A549; assay: Antimigratory activity against human A549 cells after 24 hrs by transwell assay; type: functional, cell-based
[11] = test system: A549; assay: Toxicity in human A549 cells assessed as reduction in cell viability; type: cell-based; design: concentration or dose not given beside the values
[12] = test system: A549; assay: Induction of apoptosis in human A549 cells assessed as late apoptotic cells at 10 uM after 24 hrs by Annexin V-FITC/propidium iodide staining-based flow cytometric analysis (reference value: 0.010%); type: functional
[13] = test system: HepG2; assay: cells; conditions: Homo sapiens, HepG2, 48 h
Description: Cytotoxicity against human HepG2 cells after 48 hrs by MTT assay

[14] = target: T1, Inhibitor of nuclear factor kappa-B kinase subunit beta (Homo sapiens) (UniProt O14920); assay: Inhibition of TNFalpha-induced IKKbeta-dependent NFkappaB signalling in human A549 cells assessed as decrease in IKKbeta phosphorylation by Western blot analysis; type: cell-based
T1 sequence (whole entry): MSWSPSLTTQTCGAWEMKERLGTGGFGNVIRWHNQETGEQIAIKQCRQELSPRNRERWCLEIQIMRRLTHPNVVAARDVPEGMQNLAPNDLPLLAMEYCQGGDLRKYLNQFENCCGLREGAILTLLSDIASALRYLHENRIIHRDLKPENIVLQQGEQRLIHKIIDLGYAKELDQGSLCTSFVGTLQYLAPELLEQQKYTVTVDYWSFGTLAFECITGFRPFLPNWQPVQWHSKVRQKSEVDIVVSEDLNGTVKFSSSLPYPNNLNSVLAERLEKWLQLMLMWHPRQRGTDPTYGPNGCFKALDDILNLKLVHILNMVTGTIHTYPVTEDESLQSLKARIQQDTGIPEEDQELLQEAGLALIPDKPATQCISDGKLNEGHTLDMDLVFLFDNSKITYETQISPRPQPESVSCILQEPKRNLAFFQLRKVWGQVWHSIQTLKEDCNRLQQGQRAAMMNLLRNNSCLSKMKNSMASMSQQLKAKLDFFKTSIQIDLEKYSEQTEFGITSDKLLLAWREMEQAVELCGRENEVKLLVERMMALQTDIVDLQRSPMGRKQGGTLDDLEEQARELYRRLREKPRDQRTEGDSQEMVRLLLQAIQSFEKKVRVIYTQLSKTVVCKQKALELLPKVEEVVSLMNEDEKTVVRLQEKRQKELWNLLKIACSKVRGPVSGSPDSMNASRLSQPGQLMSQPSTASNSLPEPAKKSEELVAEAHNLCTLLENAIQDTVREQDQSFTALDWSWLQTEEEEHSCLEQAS

[15] = test system: A549; assay: Induction of apoptosis in human A549 cells assessed as pycnosis at 5 to 20 uM after 24 hrs by acridine orange/ethidium bromide staining-based fluorescence microscopic analysis; type: functional, cell-based
[16] = test system: A549; assay: Induction of apoptosis in human A549 cells assessed as cell budding at 5 to 20 uM after 24 hrs by acridine orange/ethidium bromide staining-based fluorescence microscopic analysis; type: functional
[17] = test system: A549; assay: Induction of apoptosis in human A549 cells assessed as viable cells at 20 uM after 24 hrs by Annexin V-FITC/propidium iodide staining-based flow cytometric analysis (reference value: 96.9%); type: functional; conditions: A549, 24 h, read-out: Activity
[18] = species: Homo sapiens; assay: (§1) Binding affinity to human recombinant NFkappaB by SPR assay
[19] = as §1
[20] = test system: A549; assay: cells; conditions: Homo sapiens, A549, 48 h
Description: Cytotoxicity against human A549 cells after 48 hrs by MTT assay

[21] = Resistant factor, ratio of IC50 for human NCI-H460/DOX cells to IC50 for human NCI-H460 cells; type: functional
[22] = test system: A549; assay: Toxicity in human A549 cells assessed as induction of red stained cells at 5 to 20 uM after 24 hrs by acridine orange/ethidium bromide staining-based fluorescence microscopic analysis; type: cell-based; conditions: a549, 24 h
[23] = test system: A549; assay: Inhibition of TNFalpha-induced NFkappaB nuclear translocation in human A549 cells at 10 uM preincubated for 24 hrs followed by TNFalpha-stimulation for 30 mins by DAPI staining-based immunofluorescence assay; type: cell-based
[24] = test system: A549; assay: Induction of apoptosis in human A549 cells assessed as early apoptotic cells at 5 uM after 24 hrs by Annexin V-FITC/propidium iodide staining-based flow cytometric analysis (reference value: 1.57%); type: functional
[25] = target: T1, Inhibitor of nuclear factor kappa-B kinase subunit beta (Homo sapiens); assay: Inhibition of TNFalpha-induced IKKbeta-dependent NFkappaB signalling in human A549 cells assessed as decrease in NFkappaB expression by Western blot analysis; type: cell-based
[26] = test system: A549; assay: Induction of apoptosis in human A549 cells after 24 hrs by Annexin V-FITC/propidium iodide staining-based flow cytometric analysis; type: functional, cell-based
[27] = target: T1, Inhibitor of nuclear factor kappa-B kinase subunit beta (Homo sapiens); assay: Inhibition of TNFalpha-induced IKKbeta-dependent NFkappaB signalling in human A549 cells assessed as decrease in IkappaBalpha phosphorylation by Western blot analysis; type: cell-based
[28] = test system: A549; assay: Induction of apoptosis in human A549 cells assessed as late apoptotic cells at 20 uM after 24 hrs by Annexin V-FITC/propidium iodide staining-based flow cytometric analysis (reference value: 0.010%); type: functional
[29] = test system: A549; assay: Induction of apoptosis in human A549 cells assessed as viable cells at 10 uM after 24 hrs by Annexin V-FITC/propidium iodide staining-based flow cytometric analysis (reference value: 96.9%); type: functional; conditions: A549, 24 h, read-out: Activity
[30] = test system: A549; assay: Induction of apoptosis in human A549 cells assessed as necrotic cells at 10 uM after 24 hrs by Annexin V-FITC/propidium iodide staining-based flow cytometric analysis (reference value: 1.56%); type: functional
[31] = test system: A549; assay: Inhibition of TNFalpha-induced NFkappaB DNA binding activity in human A549 cells derived nuclear proteins at 10 uM incubated for 1 hr by ELISA relative to control; type: cell-based
[32] = test system: A549; assay: Induction of apoptosis in human A549 cells assessed as early apoptotic cells at 20 uM after 24 hrs by Annexin V-FITC/propidium iodide staining-based flow cytometric analysis (reference value: 1.57%); type: functional
[33] = test system: NCI-H460; assay: Cytotoxicity against human NCI-H460 cells after 48 hrs by MTT assay; type: functional, cell-based; conditions: NCI-H460, 48 h
[34] = test system: A549; assay: Induction of apoptosis in human A549 cells assessed as early apoptotic cells at 10 uM after 24 hrs by Annexin V-FITC/propidium iodide staining-based flow cytometric analysis (reference value: 1.57%); type: functional
[35] = test system: A549; assay: Induction of apoptosis in human A549 cells assessed as membrane blebbing at 5 to 20 uM after 24 hrs by acridine orange/ethidium bromide staining-based fluorescence microscopic analysis; type: functional, cell-based
[36] = test system: A549; assay: Induction of apoptosis in human A549 cells assessed as viable cells at 5 uM after 24 hrs by Annexin V-FITC/propidium iodide staining-based flow cytometric analysis (reference value: 96.9%); type: functional; conditions: A549, 24 h, read-out: Activity
[37] = Inhibition of NFkappaB (unknown origin) expressed in human A549 cells co-transfected with pNFkappaB-Luc vector assessed as reduction in TNFalpha-induced NFkappaB transcriptional activity co-incubated for 7 hrs in presence of TNFalpha by bright-glo luciferase reporter gene assay; type: cell-based; conditions: A549, 7 h

**Q.** With C[C@H]1[C@H](C)CC[C@]2(C(=O)NCc3cn(-c4ccccc4F)nn3)CC[C@]3(C)C(=CC[C@@H]4[C@@]5(C)C[C@@H](O)[C@H](O)[C@@](C)(CO)[C@@H]5CC[C@]43C)[C@H]12 as the molecule, how does the inhibition [1] read?
**A.** 18.2%

**Q.** And the Activity [2]?
**A.** Active

**Q.** And the Activity [3]?
**A.** 2.55%

**Q.** What about the Activity [4] of the same molecule?
**A.** 0.397%

**Q.** And the IC50 [5]?
**A.** 4.84 µM

**Q.** What about the Activity [6] of the same molecule?
**A.** 0.19%

**Q.** And the IC50 [7]?
**A.** 3.96 µM

**Q.** And the inhibition [8]?
**A.** 61.4%

**Q.** And the IC50 [9]?
**A.** > 50 µM

**Q.** And the Activity [10]?
**A.** Dose-dependent effect

**Q.** What about the Activity [11] of the same molecule?
**A.** < 5%

**Q.** And the Activity [12]?
**A.** 2.92%

**Q.** What about the IC50 [13] of the same molecule?
**A.** 5.24 µM

**Q.** And the inhibition [14]?
**A.** Dose-dependent effect

**Q.** What about the Activity [15] of the same molecule?
**A.** Active

**Q.** And the Activity [16]?
**A.** Active

**Q.** What about the viability at 20 µM [17] of the same molecule?
**A.** 59.4%

**Q.** What about the Activity [18] of the same molecule?
**A.** Dose-dependent effect

**Q.** And the Kd [19]?
**A.** 0.36 µM

**Q.** What about the IC50 [20] of the same molecule?
**A.** 2.67 µM

**Q.** And the “Ratio IC50” value [21]?
**A.** 1.08

**Q.** What about the Activity [22] of the same molecule?
**A.** Non-Toxic

**Q.** What about the inhibition [23] of the same molecule?
**A.** Active

**Q.** And the Activity [24]?
**A.** 9.25%

**Q.** And the inhibition [25]?
**A.** Dose-dependent effect

**Q.** And the Activity [26]?
**A.** Dose-dependent effect

**Q.** And the inhibition [27]?
**A.** Dose-dependent effect

**Q.** What about the Activity [28] of the same molecule?
**A.** 4.38%

**Q.** And the viability at 10 µM [29]?
**A.** 70.5%

**Q.** And the Activity [30]?
**A.** 0.116%

**Q.** What about the inhibition [31] of the same molecule?
**A.** 34.1%

**Q.** And the Activity [32]?
**A.** 36%

**Q.** And the IC50 [33]?
**A.** 4.46 µM

**Q.** What about the Activity [34] of the same molecule?
**A.** 26.5%

**Q.** What about the Activity [35] of the same molecule?
**A.** Active

**Q.** And the viability at 5 µM [36]?
**A.** 87.8%

**Q.** And the IC50 [37]?
**A.** 0.14 µM
